Assay results as given in patent publication US9023789B2, “Amylin analogs and pharmaceutical compositions thereof” (Novo Nordisk A/S, priority 2012, dated 2015).
Numbered stars: 1 amine (or outer) side, 2 acyl side, 3 side chain; on linkers, the order of the positions; unused ones are H or OH. Bridge positions count the residues as written; N and C are the ends. Side chains are listed from the residue outwards. Peptide text beside a SMILES is read from it. * marks the point of attachment. C20 diacid = O=C(O)CCCCCCCCCCCCCCCCCCC(=O)*; γGlu = O=C(O)[C@H](CCC(=O)[*:2])N[*:1]; AEEA = NCCOCCOCC(=O)O

Experiments:
[1] = target: T1, human amylin 3(a) receptor (human calcitonin receptor + RAMP-3) in BHK570 cells (Homo sapiens, UniProt O60896+P30988); assay: ASSAY (II)a functional assay, human amylin receptor (CRE luciferase); type: cell-based; settings: for EC50: human amylin receptor functional potency, assay (II), read-out: hAmylin-R funct. EC50
T1 construct: expressed in transfected cells
Method in brief: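 Cells were seeded and cultured overnight, then incubated with standard or sample for 3 h at 37° C in serum-containing medium at pH 7.4. The medium was then swapped for PBS, LucLite was added for 30 min at room temperature, and luminescence was recorded. Cells were BHK with CRE-luc and calcitonin receptor, ± RAMP-3.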

[2] = ASSAY (III) ThT fibrillation assay for physical stability; type: physicochemical
Method in brief: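 Formulations with 1 μM ThT, pH adjusted as required, incubated at 37 °C with 960 rpm orbital shaking; fluorescence (ex 444/em 485 nm) read every 20 min. Fibrillation reported as mean ThT fluorescence ± SD of 4–8 replicates at time points; polypeptide concentration measured by reverse-phase HPLC before and after, post-centrifugation.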

[3] = target: T2, human amylin receptor (membranes from Amylin 3(a)/CRE-luc cells) (Homo sapiens, UniProt O60896+P30988); assay: ASSAY (V) binding to the human amylin receptor (SPA, 125I-rat amylin); settings: for IC50: Table 4, read-out: hAmylin-R bind IC50;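 as to all read-outs here: competition binding of cell membranes (35 ng/µL) mixed with SPA beads in 384-well plates at 40 µL total volume, read by scintillation counting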
T2 construct: expressed in transfected cells
T2 sequence (P30988 25-474): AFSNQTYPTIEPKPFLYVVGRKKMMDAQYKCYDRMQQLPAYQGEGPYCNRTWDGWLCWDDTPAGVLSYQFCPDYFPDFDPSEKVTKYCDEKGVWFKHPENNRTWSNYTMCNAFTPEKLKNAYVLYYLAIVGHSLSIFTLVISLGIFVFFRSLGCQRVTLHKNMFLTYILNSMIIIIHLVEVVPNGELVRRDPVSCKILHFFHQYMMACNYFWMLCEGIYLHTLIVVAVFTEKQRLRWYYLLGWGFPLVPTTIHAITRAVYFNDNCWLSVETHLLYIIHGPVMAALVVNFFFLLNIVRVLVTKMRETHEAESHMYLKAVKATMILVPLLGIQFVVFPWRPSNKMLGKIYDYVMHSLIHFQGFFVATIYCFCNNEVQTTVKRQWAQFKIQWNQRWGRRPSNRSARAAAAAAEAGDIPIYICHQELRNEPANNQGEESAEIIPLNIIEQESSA
T2 sequence (O60896 24-148 partner): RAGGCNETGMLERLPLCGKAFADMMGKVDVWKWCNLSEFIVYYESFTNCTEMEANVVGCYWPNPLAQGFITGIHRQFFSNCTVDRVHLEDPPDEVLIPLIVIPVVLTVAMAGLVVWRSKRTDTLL

[4] = hCTR funct. EC50 divided by hAmylin-R funct. EC50
[5] = hCTR funct. EC50 over hAmylin-R funct. EC50
[6] = human functional selectivity: hCTR funct. EC50 / hAmylin-R funct. EC50
[7] = Table 5, selectivity, hCTR bind IC50 / hAmylin-R bind IC50
[8] = Table 5a, selectivity, hCTR bind IC50 / hAmylin-R bind IC50
[9] = Table 5b, selectivity, hCTR bind IC50 / hAmylin-R bind IC50
[10] = Table 5c, selectivity, hCTR bind IC50 / hAmylin-R bind IC50
[11] = Table 7, human binding selectivity, included for comparison
[12] = Table 7a (preferred compounds), human binding selectivity, included for comparison
[13] = ratio of human calcitonin receptor binding IC50 to human amylin receptor binding IC50

| Ratio hCT/hAmylin funct. [1, 4] | Ratio hCT/hAmylin funct. [1, 5] | Ratio hCT/hAmylin funct. [1, 6] | ThT pH 4.0 lag time (h) [2] | Ratio hCT/hAmylin binding [3, 7] | Ratio hCT/hAmylin binding [3, 8] | Ratio hCT/hAmylin binding [3, 9] | Ratio hCT/hAmylin binding [3, 10] | Ratio hCT/hAmylin binding [3, 11] | Ratio hCT/hAmylin binding [3, 12] | Ratio hCT/hAmylin binding [3, 13] | EC50 [1] | IC50 [3] | SMILES |
| --- | --- | --- | --- | --- | --- | --- | --- | --- | --- | --- | --- | --- | --- |
| 15.3 | 15.3 | 15.3 | 45 h | 45.2 | 45.2 | 45.2 | 45.2 | 45.2 | 45.2 | 45.2 | – | – | CC[C@H](C)[C@H](NC(=O)[C@H](C)NC(=O)CNC(=O)[C@H](Cc1ccccc1)NC(=O)[C@H](CC(N)=O)NC(=O)[C@@H]1CCCN1C(=O)[C@H](CO)NC(=O)[C@H](CO)NC(=O)[C@H](Cc1c[nH]cn1)NC(=O)[C@H](CCCNC(=N)N)NC(=O)[C@H](CC(C)C)NC(=O)[C@H](Cc1ccccc1)NC(=O)[C@H](CC(N)=O)NC(=O)[C@H](C)NC(=O)[C@H](CC(C)C)NC(=O)[C@H](CCCNC(=N)N)NC(=O)[C@H](CCC(N)=O)NC(=O)[C@@H](NC(=O)[C@H](C)NC(=O)[C@@H]1CSSC[C@H](NC(=O)[C@@H](N)CCCCNC(=O)CC[C@H](NC(=O)CCCCCCCCCCCCCCCCCCC(=O)O)C(=O)O)C(=O)N[C@@H](CC(N)=O)C(=O)N[C@@H]([C@@H](C)O)C(=O)N[C@@H](C)C(=O)N[C@@H]([C@@H](C)O)C(=O)N1)[C@@H](C)O)C(=O)N1CCC[C@H]1C(=O)N[C@@H](CO)C(=O)N[C@@H](CO)C(=O)N[C@H](C(=O)N[C@@H](CC(N)=O)C(=O)N[C@H](C(=O)NCC(=O)N[C@@H](CO)C(=O)N[C@@H](Cc1c[nH]cn1)C(=O)N[C@H](C(=O)N[C@@H](Cc1ccc(O)cc1)C(N)=O)[C@@H](C)O)C(C)C)[C@@H](C)O [Example 60] |
| 10.9 | 10.9 | 10.9 | 45 h | 66.7 | 66.7 | 66.7 | 66.7 | 66.7 | 66.7 | 66.7 | – | – | CC[C@H](C)[C@H](NC(=O)[C@H](C)NC(=O)CNC(=O)[C@H](Cc1ccccc1)NC(=O)[C@H](CC(N)=O)NC(=O)[C@@H]1CCCN1C(=O)[C@H](CO)NC(=O)[C@H](CO)NC(=O)[C@H](Cc1c[nH]cn1)NC(=O)[C@H](CCCNC(=N)N)NC(=O)[C@H](CC(C)C)NC(=O)[C@H](Cc1ccccc1)NC(=O)[C@H](Cc1c[nH]cn1)NC(=O)[C@H](C)NC(=O)[C@H](CC(C)C)NC(=O)[C@H](CCCNC(=N)N)NC(=O)[C@H](CCC(N)=O)NC(=O)[C@@H](NC(=O)[C@H](C)NC(=O)[C@@H]1CSSC[C@H](NC(=O)[C@@H](N)CCCCNC(=O)COCCOCCNC(=O)CC[C@H](NC(=O)CCCCCCCCCCCCCCCCCCC(=O)O)C(=O)O)C(=O)N[C@@H](CC(N)=O)C(=O)N[C@@H]([C@@H](C)O)C(=O)N[C@@H](C)C(=O)N[C@@H]([C@@H](C)O)C(=O)N1)[C@@H](C)O)C(=O)N1CCC[C@H]1C(=O)N[C@@H](CO)C(=O)N[C@@H](CO)C(=O)N[C@H](C(=O)N1CCC[C@H]1C(=O)N[C@H](C(=O)NCC(=O)N[C@@H](CO)C(=O)N[C@@H](CC(N)=O)C(=O)N[C@H](C(=O)N[C@@H](Cc1ccc(O)cc1)C(N)=O)[C@@H](C)O)C(C)C)[C@@H](C)O [Example 61] (H-K([AEEA-γGlu-C20 diacid])CNTATCATQRLAHFLRHSSPNFGAIPSSTPVGSNTY-NH2; disulfide 2-7 (inferred)) |
| 12.3 | 12.3 | 12.3 | 45 h | 63.0 | 63.0 | 63.0 | 63.0 | 63.0 | 63.0 | 63.0 | 0.044 nM | 0.098 nM | CC[C@H](C)[C@H](NC(=O)[C@H](C)NC(=O)CNC(=O)[C@H](Cc1ccccc1)NC(=O)[C@H](CC(N)=O)NC(=O)[C@@H]1CCCN1C(=O)[C@H](CO)NC(=O)[C@H](CO)NC(=O)[C@H](Cc1c[nH]cn1)NC(=O)[C@H](CCCNC(=N)N)NC(=O)[C@H](CC(C)C)NC(=O)[C@H](Cc1ccccc1)NC(=O)[C@H](Cc1c[nH]cn1)NC(=O)[C@H](C)NC(=O)[C@H](CC(C)C)NC(=O)[C@H](CCCNC(=N)N)NC(=O)[C@H](CCC(N)=O)NC(=O)[C@@H](NC(=O)[C@H](C)NC(=O)[C@@H]1CSSC[C@H](NC(=O)[C@@H](N)CCCCNC(=O)CC[C@H](NC(=O)CCCCCCCCCCCCCCCCCCC(=O)O)C(=O)O)C(=O)N[C@@H](CC(N)=O)C(=O)N[C@@H]([C@@H](C)O)C(=O)N[C@@H](C)C(=O)N[C@@H]([C@@H](C)O)C(=O)N1)[C@@H](C)O)C(=O)N1CCC[C@H]1C(=O)N[C@@H](CO)C(=O)N[C@@H](CO)C(=O)N[C@H](C(=O)N1CCC[C@H]1C(=O)N[C@H](C(=O)NCC(=O)N[C@@H](CO)C(=O)N[C@@H](CC(N)=O)C(=O)N[C@H](C(=O)N[C@@H](Cc1ccc(O)cc1)C(N)=O)[C@@H](C)O)C(C)C)[C@@H](C)O [Example 62] (H-K([γGlu-C20 diacid])CNTATCATQRLAHFLRHSSPNFGAIPSSTPVGSNTY-NH2; disulfide 2-7; N-terminus assumed) |
| 60.7 | 60.7 | 60.7 | 45 h | 126.1 | 126.1 | 126.1 | 126.1 | 126.1 | 126.1 | 126.1 | 0.378 nM | 0.444 nM | CC[C@H](C)[C@H](NC(=O)[C@H](C)NC(=O)CNC(=O)[C@H](Cc1ccccc1)NC(=O)[C@H](CC(N)=O)NC(=O)[C@@H]1CCCN1C(=O)[C@H](CO)NC(=O)[C@H](CO)NC(=O)[C@H](Cc1c[nH]cn1)NC(=O)[C@H](CCCNC(=N)N)NC(=O)[C@H](CC(C)C)NC(=O)[C@H](Cc1ccccc1)NC(=O)[C@H](CCCNC(=N)N)NC(=O)[C@H](C)NC(=O)[C@H](CC(C)C)NC(=O)[C@H](CCCNC(=N)N)NC(=O)[C@H](CCC(N)=O)NC(=O)[C@@H](NC(=O)[C@H](C)NC(=O)[C@@H]1CSSC[C@H](NC(=O)[C@@H](N)CCCCNC(=O)COCCOCCNC(=O)CC[C@H](NC(=O)CCCCCCCCCCCCCCCCCCC(=O)O)C(=O)O)C(=O)N[C@@H](CC(N)=O)C(=O)N[C@@H]([C@@H](C)O)C(=O)N[C@@H](C)C(=O)N[C@@H]([C@@H](C)O)C(=O)N1)[C@@H](C)O)C(=O)N1CCC[C@H]1C(=O)N[C@@H](CO)C(=O)N[C@@H](CO)C(=O)N[C@H](C(=O)N1CCC[C@H]1C(=O)N[C@H](C(=O)NCC(=O)N[C@@H](CO)C(=O)N[C@@H](CC(N)=O)C(=O)N[C@H](C(=O)N[C@@H](Cc1ccc(O)cc1)C(N)=O)[C@@H](C)O)C(C)C)[C@@H](C)O [Example 64] (H-K([AEEA-γGlu-C20 diacid])CNTATCATQRLARFLRHSSPNFGAIPSSTPVGSNTY-NH2; disulfide 2-7; N-terminus assumed) |
